Laboratory results as given in ChEMBL document CHEMBL3132764, “-Aminophosphonates as novel anti-leishmanial chemotypes: synthesis, biological evaluation, and CoMFA studies” (Medchemcomm, 2014).

How the values were obtained:
[1] = Cytotoxicity against mouse J774A1 cells after 48 hrs by MTT assay; format: cell-based, J774.A1
Leishmania donovani = assay: Antileishmanial activity against promastigote stage of wild type Leishmania donovani MHOM/80/IN/Dd8 after 48 hrs by MTT assay; format: functional, organism-based; conditions: MHOM/80/IN/Dd8, 48 h
[2] = Selectivity index, ratio of CC50 for mouse J774A1 cells to IC50 for promastigote stage of wild type Leishmania donovani MHOM/80/IN/Dd8; format: functional, J774.A1
[3] = Half life in human; format: ADME, organism-based; conditions: in vivo

half-life [3] [h]	SMILES	CC50 at 48 h [1] [µM]	IC50 (Leishmania donovani; read-out: IC50) [µM]	IC50 (Leishmania donovani; read-out: pIC50 (converted)) [µM]	Ratio CC50/IC50 [2]
–	COP(=O)(OC)C1(Nc2ccccc2)CCCCC1	7.5	16.4	16.2	0.46
–	COP(=O)(OC)C(Nc1ccccc1)c1ccccc1 (racemic)	12.5	13.5	13.5	0.93
–	COP(=O)(OC)C(Nc1ccccc1)C1CCCCC1 (racemic)	14	> 100	–	–
–	COP(=O)(OC)C(Nc1ccccc1)c1ccc(N(C)C)cc1 (racemic)	5	> 100	–	–
–	COP(=O)(OC)C(Nc1ccccc1)c1cccc(O)c1 (racemic)	> 100	> 100	–	–
–	COc1ccc(C(Nc2cc(C)on2)P(=O)(OC)OC)cc1 (racemic)	7.5	8	7.94	0.94
–	COc1ccc(C(Nc2nc3c(C)cccc3s2)P(=O)(OC)OC)cc1 (racemic)	8.5	8.75	8.71	0.97
–	COP(=O)(OC)C(Nc1ccccc1)c1ccc([N+](=O)[O-])cc1 (racemic)	5	8.95	8.91	0.56
–	COP(=O)(OC)C(Nc1ccccc1)c1ccccc1O (racemic)	5	8.95	8.91	0.56
–	COc1ccc(C(Nc2ccccc2)P(=O)(OC)OC)cc1O (racemic)	31	9.75	9.77	3.18
–	COP(=O)(OC)C(C)(Nc1ccccc1)c1ccccc1 (racemic)	6	13.5	13.5	0.44
–	COc1cc(C(Nc2ccccc2)P(=O)(OC)OC)cc(OC)c1O (racemic)	10	13.5	13.5	0.74
–	COP(=O)(OC)C(/C=C/c1ccccc1)Nc1ccccc1 (racemic)	8	17.5	17.4	0.46
–	COc1ccccc1C(Nc1ccccc1)P(=O)(OC)OC (racemic)	6	18	18.2	0.33
–	COc1ccc(C(Nc2nc3c(Cl)cccc3s2)P(=O)(OC)OC)cc1 (racemic)	–	22	21.9	–
–	COP(=O)(OC)C(Nc1ccccc1)c1ccccc1Br (racemic)	5.5	22.5	22.4	0.24
–	COP(=O)(OC)C(Nc1ccccc1)c1ccccc1F (racemic)	12	24	24	0.5
–	COc1ccc(C(Nc2ccccc2)P(=O)(OC)OC)cc1 (racemic)	5.5	25	25.1	0.22
–	COP(=O)(OC)C(Nc1cc(C)on1)c1ccccc1 (racemic)	–	30	30.2	–
–	COP(=O)(OC)C(Nc1ccccc1)c1ccc(Cl)cc1 (racemic)	39	36	36.3	1.08
–	COP(=O)(OC)C(Nc1ccccc1)c1ccc(Br)cc1 (racemic)	6.5	39	38.9	0.17
–	COP(=O)(OC)C(Nc1ccccc1)c1cccc2ccccc12 (racemic)	> 100	56	56.2	–
–	COP(=O)(OC)C(Nc1ccccc1)c1ccccn1 (racemic)	5	90	89.1	0.06
–	COP(=O)(OC)C(Nc1ccccc1)c1ccc2ccccc2c1 (racemic)	6.1	91.5	91.2	0.07
–	COc1cc(C(Nc2ccccc2)P(=O)(OC)OC)ccc1O (racemic)	5	7.1	7.08	0.7
–	COP(=O)(OC)C(Nc1ccccc1)c1ccc(O)cc1 (racemic)	6.5	8	7.94	0.81
–	C[C@@H]1[C@H](O)[C@@H](C)/C=C/C=C/C=C/C=C/C=C/C=C/C=C/[C@H](O[C@@H]2O[C@H](C)[C@@H](O)[C@H](N)[C@@H]2O)C[C@@H]2O[C@](O)(C[C@@H](O)C[C@@H](O)[C@H](O)CC[C@@H](O)C[C@@H](O)CC(=O)O[C@H]1C)C[C@H](O)[C@H]2C(=O)O [AMPHOTERICIN B]	7	0.405	–	17.28
144	CCCCCCCCCCCCCCCCOP(=O)([O-])OCC[N+](C)(C)C [MILTEFOSINE]	–	–	–	–
